Measurements as given in patent US8449896B2, “Pharmaceutical composition having improved solubility” (Daiichi Sankyo Company, Limited, priority 2009, dated 2013).

Experiment: solubility of compound I in aqueous solutions
Type: physicochemical

Structure (SMILES): CN1CCc2nc(C(=O)N[C@@H]3C[C@@H](C(=O)N(C)C)CC[C@@H]3NC(=O)C(=O)Nc3ccc(Cl)cn3)sc2C1 [compound I, N^1-(5-chloropyridin-2-yl)-N^2-((1S,2R,4S)-4-[(dimethylamino)carbonyl]-2-{[(5-methyl-4,5,6,7-tetrahydrothiazolo[5,4-c]pyridin-2-yl)carbonyl]amino}cyclohexyl)ethanediamide]
- solubility in a neutral aqueous solution (neutral aqueous solution (e.g., a neutral buffer)): reduced solubility
- solubility in a strongly acidic aqueous solution (strongly acidic aqueous solution): favorable solubility
